Results taken from US6479447B2, “Bleaching composition for dry cleaning containing transition metal bleach catalyst” (Unilever Home & Personal Care USA, division of Conopco, Inc., priority 1999, dated 2002).

Experiment: log P, partitioning between octanol and water
Format: physicochemical
Conditions: octanol/water at 25° C.; usually determined with hexafluorophosphate as counterion
Protocol: To the skilled person, log P is a well known coefficient for describing the partitioning of a compound between octanol and water at ambient temperature (25° C.). Whereby P is the concentration of the bleach catalyst in octanol divided by the concentration of bleach catalyst in water. (Leo et al. Chem Rev 1971, 71, 525). The log P is usually determined in the presence of hexafluorophophate as the counterion.

Compound	log P
CN1CCN(C)CCN(C)CC1.CN1CCN(C)CCN(C)CC1.F[P-](F)(F)(F)(F)F.F[P-](F)(F)(F)(F)F.[Mn+4].[Mn+4].[O-2].[O-2].[O-2] [Catalyst 1, Dimanganese-tris-μ-oxo-bis(1,4,7-trimethyl-1,4,7-triazacyclononane) bis(Hexafluorophosphate)]	less than 3
Dimanganese-tris-μ-oxo-bis(2-octyl-1,4,7-trimethyl-1,4,7-triazacyclononane) bis(Hexasulphate) [Catalyst 2]	more than 3
